PubChem BioAssay AID248 (DTP/NCI, 2004)
Inconclusive results and toxic doses are left out.

Test system: L1210 leukemia ip in BDF1 mice, survival T/C
Assay: NCI In Vivo Anticancer Drug Screen. Data for tumor model L1210 Leukemia (intraperitoneal) in B6D2F1 (BDF1) mice
Details: endpoint: mean survival time, higher = longer survival
Summary of the method: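 Transplantable tumor model; survival measured in treated vs vehicle control mice. Value = treated/control.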

**Q.** Which results are given for `Cc1cc(N(CCOS(C)(=O)=O)CCOS(C)(=O)=O)ccc1C=Nc1ccc(-c2csc(COc3ccccc3)n2)cc1`?
**A.** T/C (dose: 66.0 mg/kg/injection, schedule: Q04DX003 (ip), vehicle: Klucel (hydroxypropylcellulose) (HPC)): 116 % of control; T/C (dose: 100.0 mg/kg/injection, schedule: Q04DX003 (ip), vehicle: Klucel (hydroxypropylcellulose) (HPC)): 98 % of control; T/C (dose: 125.0 mg/kg/injection, schedule: Q04DX003 (ip), vehicle: Klucel (hydroxypropylcellulose) (HPC)): 158 % of control; T/C (dose: 150.0 mg/kg/injection, schedule: Q04DX003 (ip), vehicle: Klucel (hydroxypropylcellulose) (HPC)): 154 % of control; T/C (dose: 200.0 mg/kg/injection, schedule: Q04DX003 (ip), vehicle: Klucel (hydroxypropylcellulose) (HPC)): 151 % of control

**Q.** How did the T/C (dose: 50.0 mg/kg/injection, schedule: Q01DX009 (ip), vehicle: saline with Tween-80) turn out when `CC1(C)C=CS1(=O)=O` was run?
**A.** 98 % of control

**Q.** And the T/C (dose: 100.0 mg/kg/injection, schedule: Q01DX009 (ip), vehicle: saline with Tween-80)?
**A.** 102 % of control

**Q.** What about the T/C (dose: 200.0 mg/kg/injection, schedule: Q01DX009 (ip), vehicle: saline with Tween-80) of the same compound?
**A.** 95 % of control

**Q.** What does the source list for `O=C(NNCCO)C(O)C(O)C(O)C(O)CO` (stereo not drawn)?
**A.** T/C (dose: 100.0 mg/kg/injection, schedule: Q04DX003 (ip), vehicle: saline): 97 % of control; T/C (dose: 200.0 mg/kg/injection, schedule: Q04DX003 (ip), vehicle: saline): 97 % of control; T/C (dose: 400.0 mg/kg/injection, schedule: Q04DX003 (ip), vehicle: saline): 97 % of control

**Q.** Which results are given for `O=c1cc(-c2ccccc2Br)[nH]c2ccccc12`?
**A.** T/C (dose: 100.0 mg/kg/injection, schedule: Q01DX001 (ip), vehicle: saline): 96 % of control; T/C (dose: 200.0 mg/kg/injection, schedule: Q01DX001 (ip), vehicle: saline): 100 % of control; T/C (dose: 400.0 mg/kg/injection, schedule: Q01DX001 (ip), vehicle: saline): 96 % of control

**Q.** Which T/C (dose: 0.78 mg/kg/injection, schedule: Q04DX003 (ip), vehicle: saline) does the source give for `CCC[CH2][Sn]1([CH2]CCC)[O]C(=O)C[S]1` here?
**A.** 105 % of control

**Q.** What about the T/C (dose: 1.5 mg/kg/injection, schedule: Q01DX Z (ip), vehicle: saline) of the same compound?
**A.** 97 % of control

**Q.** What about the T/C (dose: 1.56 mg/kg/injection, schedule: Q01DX001 (ip), vehicle: acetone) of the same compound?
**A.** 96 % of control

**Q.** And the T/C (dose: 1.56 mg/kg/injection, schedule: Q04DX003 (ip), vehicle: saline)?
**A.** 109 % of control

**Q.** And the T/C (dose: 2.5 mg/kg/injection, schedule: Q01DX009 (ip), vehicle: acetone)?
**A.** 105 % of control

**Q.** And the T/C (dose: 3.0 mg/kg/injection, schedule: Q01DX Z (ip), vehicle: saline)?
**A.** 106 % of control

**Q.** And the T/C (dose: 3.12 mg/kg/injection, schedule: Q01DX001 (ip), vehicle: acetone)?
**A.** 104 % of control

**Q.** What about the T/C (dose: 3.12 mg/kg/injection, schedule: Q04DX003 (ip), vehicle: saline) of the same compound?
**A.** 109 % of control

**Q.** And the T/C (dose: 4.6 mg/kg/injection, schedule: Q04DX003 (ip), vehicle: saline)?
**A.** 107 % of control

**Q.** And the T/C (dose: 6.0 mg/kg/injection, schedule: Q01DX Z (ip), vehicle: saline)?
**A.** 90 % of control

**Q.** What about the T/C (dose: 6.25 mg/kg/injection, schedule: Q01DX001 (ip), vehicle: acetone) of the same compound?
**A.** 105 % of control

**Q.** And the T/C (dose: 6.25 mg/kg/injection, schedule: Q04DX002 (ip), vehicle: saline with Tween-80)?
**A.** 101 % of control

**Q.** And the T/C (dose: 7.0 mg/kg/injection, schedule: Q04DX003 (ip), vehicle: saline)?
**A.** 97 % of control

**Q.** And the T/C (dose: 10.0 mg/kg/injection, schedule: Q04DX003 (ip), vehicle: saline)?
**A.** 108 % of control

**Q.** And the T/C (dose: 12.5 mg/kg/injection, schedule: Q04DX002 (ip), vehicle: saline with Tween-80)?
**A.** 96 % of control

**Q.** And the T/C (dose: 100.0 mg/kg/injection, schedule: Q04DX002 (ip), vehicle: saline with Tween-80)?
**A.** 106 % of control

**Q.** `CCc1ccc(NC(=O)Nc2ccccc2OC)cc1` was tested. Which T/C (dose: 100.0 mg/kg/injection, schedule: Q01DX009 (ip), vehicle: gum acacia) did it give?
**A.** 97 % of control

**Q.** And the T/C (dose: 100.0 mg/kg/injection, schedule: Q04DX003 (ip), vehicle: gum acacia)?
**A.** 98 % of control

**Q.** And the T/C (dose: 200.0 mg/kg/injection, schedule: Q01DX009 (ip), vehicle: gum acacia)?
**A.** 94 % of control

**Q.** What about the T/C (dose: 200.0 mg/kg/injection, schedule: Q04DX003 (ip), vehicle: gum acacia) of the same compound?
**A.** 92 % of control

**Q.** What about the T/C (dose: 400.0 mg/kg/injection, schedule: Q01DX009 (ip), vehicle: gum acacia) of the same compound?
**A.** 91 % of control

**Q.** And the T/C (dose: 400.0 mg/kg/injection, schedule: Q04DX003 (ip), vehicle: gum acacia)?
**A.** 104 % of control

**Q.** For `COC(=O)C1C2CC3c4[nH]c5cc(OC)ccc5c4CCN3CC2CC(O)C1OC` (stereo not drawn), which T/C (dose: 50.0 mg/kg/injection, schedule: Q04DX002 (ip), vehicle: Klucel (hydroxypropylcellulose) (HPC)) is on record?
**A.** 96 % of control

**Q.** What about the T/C (dose: 100.0 mg/kg/injection, schedule: Q04DX002 (ip), vehicle: Klucel (hydroxypropylcellulose) (HPC)) of the same compound?
**A.** 90 % of control
